Assays:
[1] = molecular target: T1, UvrA-mNeonGreen (UvrA-mNG) (Escherichia coli, UniProt P0A698); experiment: C-trap optical tweezers, single-molecule DNA binding; type: biochemical; details: 20 μM Bemcentinib; lambda DNA at 50 pN; 1 mM ATP, 10 mM MgCl2, pH 7.5
T1 construct: C-terminal mNeonGreen reporter fusion; plasmid as in Bernacchia et al. 2023

UvrA = molecular target: T2, UvrA (Escherichia coli, UniProt P0A698); experiment: NADH-linked ATPase assay, Hill fit; type: biochemical
T2 construct: recombinant, IPTG-induced, Ni-NTA purified; plasmid as in Bernacchia et al. 2023; homodimer
T2 sequence (P0A698 whole entry): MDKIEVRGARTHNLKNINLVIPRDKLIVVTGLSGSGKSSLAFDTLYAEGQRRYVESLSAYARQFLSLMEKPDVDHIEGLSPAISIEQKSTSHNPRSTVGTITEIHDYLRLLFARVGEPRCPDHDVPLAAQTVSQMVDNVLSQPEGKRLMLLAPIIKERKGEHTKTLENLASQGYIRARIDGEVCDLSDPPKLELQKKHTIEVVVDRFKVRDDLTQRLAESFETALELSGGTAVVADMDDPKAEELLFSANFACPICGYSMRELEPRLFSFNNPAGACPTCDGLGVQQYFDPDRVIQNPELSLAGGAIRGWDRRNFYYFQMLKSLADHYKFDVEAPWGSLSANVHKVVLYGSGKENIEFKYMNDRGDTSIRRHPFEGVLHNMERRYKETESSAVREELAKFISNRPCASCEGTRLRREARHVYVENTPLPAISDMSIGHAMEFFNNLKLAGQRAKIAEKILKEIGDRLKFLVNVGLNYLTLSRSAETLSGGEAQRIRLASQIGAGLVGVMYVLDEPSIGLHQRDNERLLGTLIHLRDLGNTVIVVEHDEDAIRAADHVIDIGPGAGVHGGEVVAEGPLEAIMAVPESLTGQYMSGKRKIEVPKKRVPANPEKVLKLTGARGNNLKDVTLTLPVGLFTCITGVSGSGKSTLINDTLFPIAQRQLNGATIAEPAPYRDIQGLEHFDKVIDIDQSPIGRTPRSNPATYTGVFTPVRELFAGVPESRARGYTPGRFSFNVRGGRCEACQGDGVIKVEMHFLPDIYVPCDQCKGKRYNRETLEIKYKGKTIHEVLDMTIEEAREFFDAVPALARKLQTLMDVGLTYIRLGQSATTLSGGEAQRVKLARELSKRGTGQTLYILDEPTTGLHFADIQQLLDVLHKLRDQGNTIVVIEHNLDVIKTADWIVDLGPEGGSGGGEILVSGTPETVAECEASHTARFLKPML

T1 sequence (P0A698 whole entry, the tested form may be a part): as the sequence (P0A698 whole entry) above

## Nc1nc(Nc2ccc3c(c2)CC[C@@H](N2CCCC2)CC3)nn1-c1cc2c(nn1)-c1ccccc1CCC2 [Bemcentinib]
[1]
  % reduction in DNA binders per minute at 20 μM: ~ 90%
UvrA
  IC50: 7.49 µM
